Some results are limits rather than exact numbers.

The target of one assay is BTK (Homo sapiens, UniProt Q06187). The assay is described as follows: Degradation of BTK protein in Namalwa cells (Western blot; DC50, Dmax). The settings on record: for DC50: read-out: DC50 (BTK degradation), concentration giving 50% reduction of BTK expression level, cell line not given; for Dmax: read-out: Dmax (BTK degradation); for degradation of BTK protein: Namalwa B lymphocyte cells, various concentrations, 24 hours, Western blot. In general terms: In western blotting, separated proteins are transferred to a membrane and probed.

The test system of another assay is Mino cells. The assay is described as follows: Antiproliferative effect, MTS cell viability assay, Mino cells. It counts as cell-based. Conditions: Homo sapiens, MINO, Mino mantle cell lymphoma cells; read-out: IC50 (anti-proliferation) Mino cells. In outline:
(§1)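 Readout was MTS-derived formazan absorbance (490 nm) reflecting metabolically active cells. Treatment lasted 72 h over a 0–10 μM range (0.001, 0.01, 0.1, 1, 10 μM) in JeKo-1 and Mino B-cell malignancy cells.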
A general note: Formazan colour is commonly taken as a measure of viable cells.

For another assay, the system named is JeKo-1 cells. Description: Antiproliferative effect, MTS cell viability assay, JeKo-1 cells. It counts as cell-based. Conditions: Homo sapiens; JeKo-1 mantle cell lymphoma cells; read-out: IC50 (anti-proliferation) JeKO-1 cells. In outline:
as §1

Sequence of BTK (Q06187 whole entry): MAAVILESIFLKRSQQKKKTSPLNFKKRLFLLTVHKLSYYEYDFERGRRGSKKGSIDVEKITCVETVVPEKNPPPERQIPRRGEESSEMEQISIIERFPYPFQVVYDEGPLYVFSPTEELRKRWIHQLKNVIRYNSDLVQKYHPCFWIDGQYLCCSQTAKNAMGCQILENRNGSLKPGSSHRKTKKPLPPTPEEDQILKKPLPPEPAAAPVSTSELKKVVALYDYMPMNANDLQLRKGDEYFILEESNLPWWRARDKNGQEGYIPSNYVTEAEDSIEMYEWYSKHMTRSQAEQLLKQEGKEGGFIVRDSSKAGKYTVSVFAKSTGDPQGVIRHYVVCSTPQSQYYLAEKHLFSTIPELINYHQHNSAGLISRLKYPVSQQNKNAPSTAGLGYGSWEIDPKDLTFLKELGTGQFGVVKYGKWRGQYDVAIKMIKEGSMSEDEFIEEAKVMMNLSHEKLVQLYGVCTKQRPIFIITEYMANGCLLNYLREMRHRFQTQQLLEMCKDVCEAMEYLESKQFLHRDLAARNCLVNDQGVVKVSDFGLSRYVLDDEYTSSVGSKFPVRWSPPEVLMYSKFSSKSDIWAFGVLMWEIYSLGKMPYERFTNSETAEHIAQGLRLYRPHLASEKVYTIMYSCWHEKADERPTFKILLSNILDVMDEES

Usually DC50 stands for the concentration giving 50% degradation. One may read the Dmax as the greatest extent of degradation seen. On to `Nc1ncnc2c1c(-c1ccc(Oc3ccccc3)cc1)nn2C1CCN(CCN2CCC(Sc3ccc4c(c3)C(=O)N(C3CCC(=O)NC3=O)C4=O)CC2)CC1` (stereo not shown) [Compound 471, 5-((1-(2-(4-(4-amino-3-(4-phenoxyphenyl)-1H-pyrazolo[3,4-d]pyrimidin-1-yl)piperidin-1-yl)ethyl)piperidin-4-yl)thio)-2-(2,6-dioxopiperidin-3-yl)isoindoline-1,3-dione], for which, on BTK, the DC50 is 0.01 to 0.05 µM and the Dmax was greater than 75%. Besides, in the assay on Mino cells, the IC50 fell in the range of 1 to 10 µM. Besides, the IC50 in the assay on JeKo-1 cells lay within 1 to 10 µM.
On to `Nc1ncnc2c1c(-c1ccc(Oc3ccccc3)cc1)nn2C1CCN(CCN2CCC(Sc3ccc4c(c3)CN(C3CCC(=O)NC3=O)C4=O)CC2)CC1` (stereo not shown) [Compound 472, 3-(5-((1-(2-(4-(4-amino-3-(4-phenoxyphenyl)-1H-pyrazolo[3,4-d]pyrimidin-1-yl)piperidin-1-yl)ethyl)piperidin-4-yl)thio)-1-oxoisoindolin-2-yl)piperidine-2,6-dione], for which, at BTK, the DC50 lay within 0.01 to 0.05 µM. Further, the Dmax at BTK was greater than 75%. Moreover, the IC50 in the assay with Mino cells and with JeKo-1 cells was 1 to 10 µM in each case.
`Nc1ncnc2c1c(-c1ccc(Oc3ccccc3)cc1)nn2C1CCN(CCN2CCC(CSc3ccc4c(c3)C(=O)N(C3CCC(=O)NC3=O)C4=O)C2)CC1` (stereo not shown) [Compound 473, 5-(((1-(2-(4-(4-amino-3-(4-phenoxyphenyl)-1H-pyrazolo[3,4-d]pyrimidin-1-yl)piperidin-1-yl)ethyl)pyrrolidin-3-yl)methyl)thio)-2-(2,6-dioxopiperidin-3-yl)isoindoline-1,3-dione]: on BTK, the DC50 was in the range of 0.01 to 0.05 µM and the Dmax was greater than 90%. Besides, the IC50 in the assay with Mino cells was in the range of 1 to 10 µM. Moreover, the IC50 with JeKo-1 cells was in the range of 1 to 10 µM.
On to `Nc1ncnc2c1c(-c1ccc(Oc3ccccc3)cc1)nn2C1CCN(CCN2CCC(CSc3ccc4c(c3)CN(C3CCC(=O)NC3=O)C4=O)C2)CC1` (stereo not shown) [Compound 474, 3-(5-(((1-(2-(4-(4-amino-3-(4-phenoxyphenyl)-1H-pyrazolo[3,4-d]pyrimidin-1-yl)piperidin-1-yl)ethyl)pyrrolidin-3-yl)methyl)thio)-1-oxoisoindolin-2-yl)piperidine-2,6-dione], for which, at BTK, the DC50 is less than 0.01 µM. Moreover, the Dmax on BTK was greater than 90%. Besides, the IC50 in the assay on Mino cells and with JeKo-1 cells was 1 to 10 µM in each case.
Consider `Nc1ncnc2c1c(-c1ccc(Oc3ccccc3)cc1)nn2[C@@H]1CCCN(C2CCN(C(=O)N3CC(N4CCN(c5ccc6c(c5)C(=O)N(C5CCC(=O)NC5=O)C6=O)CC4)C3)CC2)C1` (stereo partly drawn) [Compound 475, 5-(4-(1-((R)-3-(4-amino-3-(4-phenoxyphenyl)-1H-pyrazolo[3,4-d]pyrimidin-1-yl)-[1,4′-bipiperidine]-1′-carbonyl)azetidin-3-yl)piperazin-1-yl)-2-(2,6-dioxopiperidin-3-yl)isoindoline-1,3-dione], for which, on BTK, the half-maximal degradation concentration (DC50) is less than 0.01 µM and the Dmax was greater than 90%. Also, the IC50 in the assay with Mino cells is less than 1 µM. In addition, the IC50 in the assay on JeKo-1 cells lay in the range of 1 to 10 µM.
With `Nc1ncnc2c1c(-c1ccc(Oc3ccccc3)cc1)nn2[C@@H]1CCCN(C2CCN(C(=O)N3CC(N4CCN(c5ccc6c(c5)CN(C5CCC(=O)NC5=O)C6=O)CC4)C3)CC2)C1` (stereo partly drawn) [Compound 476, 3-(5-(4-(1-((R)-3-(4-amino-3-(4-phenoxyphenyl)-1H-pyrazolo[3,4-d]pyrimidin-1-yl)-[1,4′-bipiperidine]-1′-carbonyl)azetidin-3-yl)piperazin-1-yl)-1-oxoisoindolin-2-yl)piperidine-2,6-dione], on BTK, the “degradation of BTK protein” value is listed as “dose-dependent degradation”, the DC50 is less than 0.01 µM and the Dmax is greater than 90%. In addition, in the assay with Mino cells, the IC50 was less than 1 µM. Moreover, the IC50 in the assay on JeKo-1 cells was less than 1 µM.
Consider `Nc1ncnc2c1c(-c1ccc(Oc3ccccc3)cc1)nn2[C@@H]1CCCN(C2CN(C(=O)N3CC(N4CCN(c5ccc6c(c5)C(=O)N(C5CCC(=O)NC5=O)C6=O)CC4)C3)C2)C1` (stereo partly drawn) [Compound 479, 5-(4-(1-(3-((R)-3-(4-amino-3-(4-phenoxyphenyl)-1H-pyrazolo[3,4-d]pyrimidin-1-yl)piperidin-1-yl)azetidin-1-carbonyl)azetidin-3-yl)piperazin-1-yl)-2-(2,6-dioxopiperidin-3-yl)isoindoline-1,3-dione], for which, on BTK, the half-maximal degradation concentration (DC50) was less than 0.01 µM. Also, the maximal degradation (Dmax) at BTK was greater than 90%. For the same compound, the IC50 with Mino cells and in the assay on JeKo-1 cells was 1 to 10 µM throughout.
With `Nc1ncnc2c1c(-c1ccc(Oc3ccccc3)cc1)nn2[C@@H]1CCCN(C2CN(C(=O)N3CC(N4CCN(c5ccc6c(c5)CN(C5CCC(=O)NC5=O)C6=O)CC4)C3)C2)C1` (stereo partly drawn) [Compound 480, 3-(5-(4-(1-(3-((R)-3-(4-amino-3-(4-phenoxyphenyl)-1H-pyrazolo[3,4-d]pyrimidin-1-yl)piperidin-1-yl)azetidine-1-carbonyl)azetidin-3-yl)piperazin-1-yl)-1-oxoisoindolin-2-yl)piperidine-2,6-dione], at BTK, the “degradation of BTK protein” value is “dose-dependent degradation”, the 50% degradation concentration (DC50) was less than 0.01 µM and the Dmax is greater than 90%. For the same compound, the IC50 in the assay on Mino cells was less than 1 µM. In the assay with JeKo-1 cells, the IC50 is 1 to 10 µM.
On to `Nc1ncnc2c1c(-c1ccc(Oc3ccccc3)cc1)nn2[C@@H]1CCCN(C2CN(C(=O)N3CCC(N4CCN(c5ccc6c(c5)C(=O)N(C5CCC(=O)NC5=O)C6=O)CC4)CC3)C2)C1` (stereo partly drawn) [Compound 481, 5-(4-(1-(3-((R)-3-(4-amino-3-(4-phenoxyphenyl)-1H-pyrazolo[3,4-d]pyrimidin-1-yl)piperidin-1-yl)azetidin-1-carbonyl)piperidin-4-yl)piperazin-1-yl)-2-(2,6-dioxopiperidin-3-yl)isoindoline-1,3-dione], for which, at BTK, the DC50 is less than 0.01 µM and the Dmax is greater than 90%. The IC50 in the assay with Mino cells was in the range of 1 to 10 µM. Further, in the assay on JeKo-1 cells, the IC50 fell in the range of 1 to 10 µM.
Regarding `Nc1ncnc2c1c(-c1ccc(Oc3ccccc3)cc1)nn2[C@@H]1CCCN(C2CN(C(=O)N3CCC(N4CCN(c5ccc6c(c5)CN(C5CCC(=O)NC5=O)C6=O)CC4)CC3)C2)C1` (stereo partly drawn) [Compound 482, 3-(5-(4-(1-(3-((R)-3-(4-amino-3-(4-phenoxyphenyl)-1H-pyrazolo[3,4-d]pyrimidin-1-yl)piperidin-1-yl)azetidine-1-carbonyl)piperidin-4-yl)piperazin-1-yl)-1-oxoisoindolin-2-yl)piperidine-2,6-dione], on BTK, the DC50 was less than 0.01 µM and the Dmax was greater than 90%. Also, in the assay with Mino cells, the IC50 is less than 1 µM. For the same compound, the IC50 with JeKo-1 cells was 1 to 10 µM.
The corresponding values for `Nc1ncnc2c1c(-c1ccc(Oc3ccccc3)cc1)nn2C1CCN(C(=O)N2CC(N3CCN(c4ccc5c(c4)C(=O)N([C@H]4CCC(=O)NC4=O)C5=O)CC3)C2)CC1` [Compound 483, (S)-5-(4-(1-(4-(4-amino-3-(4-phenoxyphenyl)-1H-pyrazolo[3,4-b]pyrimidin-1-yl)piperidine-1-carbonyl)azetidin-3-yl)piperazin-1-yl)-2-(2,6-dioxopiperidin-3-yl)isoindoline-1,3-dione] are less than 0.01 µM, greater than 90%, less than 1 µM and 1 to 10 µM.

These data come from patent US12139492B2 (Endotarget Inc., priority 2021, dated 2024).
